According to patent US20030134901A1, “Lipoxin compounds and their use in treating cell proliferative disorders” (priority 1993, published 2003):

Legend:
[1] = tested on: Intact neutrophils from peripheral blood; assay: LXA4 metabolism by intact neutrophils; format: in vitro ADME, human; conditions: intact neutrophils of healthy donors
Method: (§1) Human PMN were obtained from healthy volunteers by gradient centrifugation of heparinized fresh venous blood (Böyum, A. ([…]) Scand. J. Clin. Lab. Invest. 21:77). HL-60 cells were seeded in RPMI supplemented with penicillin (100 U/ml), streptomycin (100 μ/ml), fetal bovine serum (10%) (Hyclone, Logan, Utah) and incubated (37° C. with 5% CO2 atmosphere) in plastic 250 ml flasks. Individual flasks containing […] HL-60 cells/ml were incubated in the presence or absence of phorbol 12-myristate 13-acetate (PMA) (10 or 16 nM, 24-27 h) and adherence was monitored for induction of macrophage-like phenotype as in Collins, S. J. (1987) Blood 70:1233. […]
(§2) Incubations with eicosanoids were stopped with cold methanol containing either PGB2 or 5-HETE as internal standards (5-HETE was used when 15-oxo-ETE was quantified). […] Formation of 15-oxo-ETE by 100,000 g supernatants (cf. Agins, A. P. et al. (1987) Agents Actions 21:397; Xun, C-Q. et al.(1991) Biochem. J. 279:553; and Sok, D-E. et al. (1988) Biochem. Biophys. Res. Commun. 156:524) was quantified after RP-HPLC using an ODS column (4.6 mm×25 cm) eluted with methanol/H2O/acetic acid (70:30:0.01, v/v/v) monitored at 280 nm with a flow rate of 1 ml/min. […] On-line spectra were recorded using a diode array detector (Hewlett-Packard 1040M series II) equipped with HPLC^3D ChemStation software (DOS series). […]

[2] = tested on: peripheral blood monocytes; assay: LXA4 metabolism by peripheral blood monocytes; format: in vitro ADME, human; conditions: within 30 s
Method: as §1, §2

[3] = target: T1, LTB4 specific binding sites of HL-60 cells (Homo sapiens, UniProt Q15722); assay: 3H-LTB4 specific binding to HL-60 cells; conditions: competitor 300 nM, differentiated HL-60 cells
T1 construct: endogenous in cells; host or cells: differentiated HL-60 cells, intact
T1 sequence (Q15722 whole entry): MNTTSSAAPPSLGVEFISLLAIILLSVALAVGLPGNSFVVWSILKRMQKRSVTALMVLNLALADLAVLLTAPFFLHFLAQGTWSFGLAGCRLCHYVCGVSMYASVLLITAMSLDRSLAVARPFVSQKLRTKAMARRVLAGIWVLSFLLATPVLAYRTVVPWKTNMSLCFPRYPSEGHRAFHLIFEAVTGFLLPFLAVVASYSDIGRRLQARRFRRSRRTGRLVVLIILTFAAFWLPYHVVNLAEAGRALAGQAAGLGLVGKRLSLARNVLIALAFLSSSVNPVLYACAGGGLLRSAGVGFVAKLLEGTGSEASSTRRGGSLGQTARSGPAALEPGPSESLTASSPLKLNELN

CCCCC[C@H](O)/C=C/C=C\C=C\C=C\[C@@H](O)[C@@H](O)CCCC(=O)O [LXA4, (5S, 6R, 15S)-trihydroxy-7E, 9E, 11Z, 13E-eicosatetraenoic acid]
metabolism of exogenous LXA4 [1]: did not significantly metabolize | LXA4 converted [2]: > 60% | competition with 3H-LTB4 (0.3 nM) binding [3]: unable to compete
